In the supplement of paper PMC10307832:

Assays:
Assay in all cases: relative viability (nuclei count vs DMSO), 5 days (fraction); higher = more cells survive
Ibrutinib + Navitoclax = compound: C=CC(=O)N1CCC[C@@H](n2nc(-c3ccc(Oc4ccccc4)cc3)c3c(N)ncnc32)C1 [Ibrutinib] + CC1(C)CCC(c2ccc(Cl)cc2)=C(CN2CCN(c3ccc(C(=O)NS(=O)(=O)c4ccc(N[C@H](CCN5CCOCC5)CSc5ccccc5)c(S(=O)(=O)C(F)(F)F)c4)cc3)CC2)C1 [Navitoclax] (partner 0.5 µM)
Summary of the method: (§1)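 For relative viability, nuclei counts in treated wells were divided by those in vehicle wells. Lung cancer cell lines had been pin-tool dosed in 1536-well plates the day after seeding and cultured for 5 days, then fixed and stained in one step (final 0.05% Triton X-100, 1% formaldehyde, 1 ug/ml Hoechst) and imaged at 4×. Doses were one drug alone or a fixed anchor-drug dose plus five library-drug doses (not always all listed) in √10 steps, and values are duplicate-plate medians.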

Ibrutinib + Dasatinib = compound: C=CC(=O)N1CCC[C@@H](n2nc(-c3ccc(Oc4ccccc4)cc3)c3c(N)ncnc32)C1 [Ibrutinib] + Cc1nc(Nc2ncc(C(=O)Nc3c(C)cccc3Cl)s2)cc(N2CCN(CCO)CC2)n1 [Dasatinib] (partner 0.075 µM)
Summary of the method: as §1

BMX-IN-1 + OSI-027 = compound: C=CC(=O)Nc1cc(-n2c(=O)ccc3cnc4ccc(-c5ccc(NS(C)(=O)=O)cc5)cc4c32)ccc1C [BMX-IN-1] + COc1cccc2cc(-c3nc([C@H]4CC[C@H](C(=O)O)CC4)n4ncnc(N)c34)[nH]c12 [OSI-027] (partner 0.5 µM)
Summary of the method: as §1

PAC-1 + Linsitinib = compound: C=CCc1cccc(/C=N/NC(=O)CN2CCN(Cc3ccccc3)CC2)c1O [PAC-1] + C[C@]1(O)C[C@@H](c2nc(-c3ccc4ccc(-c5ccccc5)nc4c3)c3c(N)nccn32)C1 [Linsitinib] (partner 1 µM)
Summary of the method: as §1

Row | Cell Line | relative viability (Ibrutinib + Navitoclax; first compound 0.005 µM) | relative viability (Ibrutinib + Navitoclax; first compound 0.01581 µM) | relative viability (Ibrutinib + Navitoclax; first compound 0.05 µM) | relative viability (Ibrutinib + Navitoclax; first compound 0.1581 µM) | relative viability (Ibrutinib + Navitoclax; first compound 0.5 µM) | relative viability (Ibrutinib + Dasatinib; first compound 0.005 µM) | relative viability (Ibrutinib + Dasatinib; first compound 0.01581 µM) | relative viability (Ibrutinib + Dasatinib; first compound 0.05 µM) | relative viability (Ibrutinib + Dasatinib; first compound 0.1581 µM) | relative viability (Ibrutinib + Dasatinib; first compound 0.5 µM) | relative viability (BMX-IN-1 + OSI-027; first compound 0.02 µM) | relative viability (BMX-IN-1 + OSI-027; first compound 0.2 µM) | relative viability (BMX-IN-1 + OSI-027; first compound 0.6325 µM) | relative viability (BMX-IN-1 + OSI-027; first compound 2 µM) | relative viability (PAC-1 + Linsitinib; first compound 0.02 µM) | relative viability (PAC-1 + Linsitinib; first compound 0.06325 µM) | relative viability (PAC-1 + Linsitinib; first compound 0.2 µM) | relative viability (PAC-1 + Linsitinib; first compound 2 µM)
1 | H3255 | 0.539 | 0.511 | 0.226 | 0.425 | 0.157 | 0.35 | 0.346 | 0.276 | 0.292 | 0.242 | 0.635 | 0.658 | 0.578 | 0.518 | 1.05 | 0.952 | 0.862 | 0.913
2 | NCI-H2087 | 1.05 | 0.952 | 1.12 | 1 | 0.939 | 1.11 | 0.91 | 1.01 |  | 0.951 | 0.624 | 0.712 | 0.589 | 0.485 | 1.18 | 0.931 | 0.899 | 0.875
3 | NCI-H661 |  |  |  |  |  | 0.626 | 0.581 | 0.417 | 0.842 | 0.425 | 0.638 | 0.798 | 0.772 | 0.761 | 0.432 | 0.561 | 0.52 | 0.532
4 | NCI-H2342 |  |  |  |  |  | 0.314 | 0.315 | 0.294 | 0.279 | 0.276 | 0.687 | 0.649 | 0.608 | 0.585 |  |  |  | 
5 | NCI-H2170 | 0.377 | 0.343 | 0.235 | 0.527 | 0.195 | 0.464 | 0.413 | 0.209 | 0.447 | 0.211 | 0.735 | 0.803 | 0.79 | 0.769 |  |  |  | 
6 | NCI-H1650 | 0.998 | 0.932 | 1.24 | 1.25 | 1.1 | 0.304 | 0.281 | 0.321 | 0.369 | 0.346 | 0.69 | 0.544 | 0.84 | 0.606 |  |  |  | 
